Source: ChEMBL document CHEMBL5338706, “Discovery of a potent and selective proteolysis targeting chimera (PROTAC) degrader of NSD3 histone methyltransferase” (Eur J Med Chem, 2022)
Active and inactive are the calls of the source. The calls are words filed in the database; no cut-off is given here.

Experiments:
[1] = test system: NCI-H1703; experiment: Induction of apoptosis in human NCI-H1703 cells assessed as decrease in MCL-1 protein expression at […] by measuring fold change by Western blot analysis relative to control; format: functional; conditions: dose 7.5 µM
[2] = target: T1, Histone-lysine N-methyltransferase NSD3 (Homo sapiens, UniProt Q9BZ95); experiment: (§1) Induction of NSD3 degradation in human NCI-H1703 cells incubated for 72 hrs by Western blot analysis; format: cell-based
T1 sequence (Q9BZ95 whole entry): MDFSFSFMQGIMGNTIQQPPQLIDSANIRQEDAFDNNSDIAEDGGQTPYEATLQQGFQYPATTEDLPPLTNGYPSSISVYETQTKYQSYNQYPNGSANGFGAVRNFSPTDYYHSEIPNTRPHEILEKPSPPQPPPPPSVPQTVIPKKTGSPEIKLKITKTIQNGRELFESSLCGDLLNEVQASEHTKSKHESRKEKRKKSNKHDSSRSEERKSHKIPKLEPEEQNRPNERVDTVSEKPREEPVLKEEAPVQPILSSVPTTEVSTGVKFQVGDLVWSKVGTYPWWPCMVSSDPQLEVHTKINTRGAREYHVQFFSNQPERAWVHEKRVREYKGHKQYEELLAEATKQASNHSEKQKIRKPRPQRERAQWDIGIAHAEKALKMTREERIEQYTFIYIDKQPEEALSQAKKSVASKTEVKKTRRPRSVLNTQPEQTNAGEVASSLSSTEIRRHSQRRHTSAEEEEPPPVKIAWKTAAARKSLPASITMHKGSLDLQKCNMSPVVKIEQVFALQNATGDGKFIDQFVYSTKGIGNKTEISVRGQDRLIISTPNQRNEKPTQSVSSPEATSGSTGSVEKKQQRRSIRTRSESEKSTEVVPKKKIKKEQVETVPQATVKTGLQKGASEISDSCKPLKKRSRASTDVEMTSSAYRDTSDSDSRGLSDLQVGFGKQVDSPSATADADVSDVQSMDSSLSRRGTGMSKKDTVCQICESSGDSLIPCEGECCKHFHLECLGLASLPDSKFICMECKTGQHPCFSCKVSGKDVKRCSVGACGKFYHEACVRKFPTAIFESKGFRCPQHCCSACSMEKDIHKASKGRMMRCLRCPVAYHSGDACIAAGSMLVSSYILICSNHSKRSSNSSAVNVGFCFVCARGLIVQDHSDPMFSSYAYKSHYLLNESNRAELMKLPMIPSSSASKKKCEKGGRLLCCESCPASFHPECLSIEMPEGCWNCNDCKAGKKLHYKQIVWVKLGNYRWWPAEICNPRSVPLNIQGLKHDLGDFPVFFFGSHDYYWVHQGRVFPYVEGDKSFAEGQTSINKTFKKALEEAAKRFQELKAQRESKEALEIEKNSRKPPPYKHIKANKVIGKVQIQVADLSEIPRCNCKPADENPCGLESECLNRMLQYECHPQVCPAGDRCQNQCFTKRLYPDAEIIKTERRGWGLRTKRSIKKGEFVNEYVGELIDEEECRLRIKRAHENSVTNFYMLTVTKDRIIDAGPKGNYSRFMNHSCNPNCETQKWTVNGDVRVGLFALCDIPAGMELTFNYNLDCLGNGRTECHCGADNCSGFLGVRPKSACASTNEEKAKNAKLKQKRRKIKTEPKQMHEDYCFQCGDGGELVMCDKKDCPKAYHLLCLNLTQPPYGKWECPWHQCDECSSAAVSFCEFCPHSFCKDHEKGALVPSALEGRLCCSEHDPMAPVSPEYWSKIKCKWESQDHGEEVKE

[3] = target: T2, Histone-lysine N-methyltransferase NSD3 (Homo sapiens) (UniProt Q9BZ95); experiment: as §1; format: cell-based; conditions: dose 0.001-5 µM
T2 sequence (whole entry): T1 sequence (Q9BZ95 whole entry)

[4] = test system: NCI-H520; experiment: Induction of apoptosis in human NCI-H520 cells assessed as decrease in NSD3 protein expression at […] by measuring fold change by Western blot analysis relative to control; format: functional; conditions: dose 7.5 µM
[5] = Downregulation of NSD3 level in human NCI-H520 cells at 3 uM by measuring fold change by Western blot analysis relative to control; format: functional
[6] = test system: NCI-H1703; experiment: Induction of apoptosis in human NCI-H1703 cells assessed as late apoptotic cells at […] measured after 72 hrs by PI/Annexin-V staining based flow cytometry analysis (reference value: 3.00% ); format: functional; conditions: dose 7.5 µM
[7] = test system: NCI-H1703; experiment: Downregulation of ALDH1A1 in human NCI-H1703 cells at […] measured after 72 hrs by RNA sequencing assay; format: functional, cell-based; conditions: dose 7.5 µM
[8] = target: T2, Histone-lysine N-methyltransferase NSD3 (Homo sapiens); experiment: Induction of NSD3 degradation in human NCI-H1703 cells at 0.001 to 5 uM by Western blot analysis; format: cell-based; conditions: dose 0.001-5 µM, time 12-72 hrs, TDE = time-dependent effect
[9] = test system: NCI-H1703; experiment: Antiproliferative activity against human NCI-H1703 cells incubated for 6 days by CCK-8 method; format: functional, cell-based; conditions: NCI-H1703, 144 h
[10] = test system: NCI-H1703; experiment: Induction of apoptosis in human NCI-H1703 cells assessed as early apoptotic cells at 3 uM measured after 72 hrs by PI/Annexin-V staining based flow cytometry analysis (reference value: 1.47% ); format: functional
[11] = test system: NCI-H520; experiment: Induction of apoptosis in human NCI-H520 cells assessed as decrease in Bcl-XL protein expression at […] by measuring fold change by Western blot analysis relative to control; format: functional; conditions: dose 7.5 µM
[12] = test system: NCI-H1703; experiment: Induction of apoptosis in human NCI-H1703 cells assessed as early apoptotic cells at 5 uM measured after 72 hrs by PI/Annexin-V staining based flow cytometry analysis (reference value: 1.47% ); format: functional
[13] = Downregulation of c-Myc level in human NCI-H1703 cells at 3 uM by measuring fold change by Western blot analysis relative to control; format: functional
[14] = target: T2, Histone-lysine N-methyltransferase NSD3 (Homo sapiens); experiment: Induction of NSD3 degradation in human NCI-H1703 cells at 5 uM measured within 12 hrs by Western blot analysis; format: cell-based
[15] = Downregulation of CDC25A level in human NCI-H520 cells at […] by measuring fold change by Western blot analysis relative to control; format: functional; conditions: dose 7.5 µM
[16] = Downregulation of CDC25A level in human NCI-H1703 cells at […] by measuring fold change by Western blot analysis relative to control; format: functional; conditions: dose 7.5 µM
[17] = test system: NCI-H520; experiment: Induction of apoptosis in human NCI-H520 cells assessed as decrease in Bcl-XL protein expression at 5 uM by measuring fold change by Western blot analysis relative to control; format: functional
[18] = test system: NCI-H1703; experiment: Induction of apoptosis in human NCI-H1703 cells assessed as decrease in Bcl-XL protein expression at 5 uM by measuring fold change by Western blot analysis relative to control; format: functional
[19] = test system: NCI-H520; experiment: Induction of apoptosis in human NCI-H520 cells assessed as decrease in MCL-1 protein expression at 5 to 10 uM by Western blot analysis; format: functional, cell-based; conditions: dose 5-10 µM
[20] = Downregulation of Cyclin D1 level in human NCI-H1703 cells at 3 uM by measuring fold change by Western blot analysis relative to control; format: functional
[21] = test system: NCI-H1703; experiment: Induction of apoptosis in human NCI-H1703 cells assessed as decrease in NSD3 protein expression at 10 uM by measuring fold change by Western blot analysis relative to control; format: functional

Cc1cc(CNCCCCCCCCCCC(=O)N[C@H](C(=O)N2C[C@H](O)C[C@H]2C(=O)N[C@@H](C)c2ccc(-c3scnc3C)cc2)C(C)(C)C)cc(C)c1-c1ncn(C)c1-c1ccnc2cc(F)ccc12
fold change (FC) [1]: 0.54 | EC50 [2]: 1.43 µM | Activity [3]: Dose-Dependent Effect | fold change (FC) [4]: 0.5 | fold change (FC) [5]: 0.67 | Activity [6]: 26.6% | Activity [7]: Active | Activity [8]: Tde | IC50 [9]: 2.74 µM | Activity [10]: 1.48% | fold change (FC) [11]: 0.8 | Activity [12]: 7.5% | fold change (FC) [13]: 0.86 | Activity [14]: Active | fold change (FC) [15]: 0.6 | fold change (FC) [16]: 0.77 | fold change (FC) [17]: 1.1 | fold change (FC) [18]: 1.1 | Activity [19]: Active | fold change (FC) [20]: 0.84 | fold change (FC) [21]: 0.63
